Data reported in PubChem BioAssay (NCI).
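Assay format: 96-well plates, 48-hour exposure. TGI is the concentration that stops growth completely.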

Tests used:
Assay in all cases: growth of human tumour cells (NCI), 48 h
EKVX NSCLC = tested on: EKVX NSCLC
MOLT-4 leukemia = tested on: MOLT-4 leukemia
MDA-MB-231 breast = tested on: MDA-MB-231 breast
SNB-75 CNS = tested on: SNB-75 CNS
HS 578T breast = tested on: HS 578T breast
IGROV1 ovarian = tested on: IGROV1 ovarian
MCF7 breast = tested on: MCF7 breast
SR leukemia = tested on: SR leukemia
HCC-2998 colon = tested on: HCC-2998 colon
OVCAR-8 ovarian = tested on: OVCAR-8 ovarian
NCI/ADR-RES ovarian = tested on: NCI/ADR-RES ovarian
HCT-116 colon = tested on: HCT-116 colon
SN12C renal = tested on: SN12C renal
NCI-H460 lung = tested on: NCI-H460 lung
NCI-H522 lung = tested on: NCI-H522 lung
PC-3 prostate = tested on: PC-3 prostate
SF-539 CNS = tested on: SF-539 CNS
HT29 colon = tested on: HT29 colon
COLO 205 colon = tested on: COLO 205 colon
HCT-15 colon = tested on: HCT-15 colon
SW-620 colon = tested on: SW-620 colon
786-0 renal = tested on: 786-0 renal
SF-268 CNS = tested on: SF-268 CNS
OVCAR-5 ovarian = tested on: OVCAR-5 ovarian
SK-MEL-28 melanoma = tested on: SK-MEL-28 melanoma
HL-60(TB) leukemia = tested on: HL-60(TB) leukemia
UACC-257 melanoma = tested on: UACC-257 melanoma
T-47D breast = tested on: T-47D breast
CCRF-CEM leukemia = tested on: CCRF-CEM leukemia
K-562 leukemia = tested on: K-562 leukemia
RPMI-8226 leukemia = tested on: RPMI-8226 leukemia
SK-OV-3 ovarian = tested on: SK-OV-3 ovarian
SNB-19 CNS = tested on: SNB-19 CNS
MDA-N = tested on: MDA-N
HOP-62 NSCLC = tested on: HOP-62 NSCLC
OVCAR-4 ovarian = tested on: OVCAR-4 ovarian
MDA-MB-435 = tested on: MDA-MB-435
M14 melanoma = tested on: M14 melanoma
SK-MEL-5 melanoma = tested on: SK-MEL-5 melanoma
A549 NSCLC = tested on: A549 NSCLC
UO-31 renal = tested on: UO-31 renal
TK-10 renal = tested on: TK-10 renal
U251 CNS = tested on: U251 CNS

Measured: TGI

CC(C)(CCCCC(C)(C)[N+](C)(C)C)[N+](C)(C)C
> 100 µM: all assays above
